Laboratory results taken from US10160755B2 (Plexxikon Inc., priority 2015, dated 2018).

Each molecule was assayed against T1, FLT3-D835Y (Homo sapiens, UniProt P36888, D835Y) (assay: FLT3-D835Y biochemical kinase assay (AlphaScreen)).
T1 construct: purchased Invitrogen PV3967
T1 sequence (P36888 27-993 D835Y): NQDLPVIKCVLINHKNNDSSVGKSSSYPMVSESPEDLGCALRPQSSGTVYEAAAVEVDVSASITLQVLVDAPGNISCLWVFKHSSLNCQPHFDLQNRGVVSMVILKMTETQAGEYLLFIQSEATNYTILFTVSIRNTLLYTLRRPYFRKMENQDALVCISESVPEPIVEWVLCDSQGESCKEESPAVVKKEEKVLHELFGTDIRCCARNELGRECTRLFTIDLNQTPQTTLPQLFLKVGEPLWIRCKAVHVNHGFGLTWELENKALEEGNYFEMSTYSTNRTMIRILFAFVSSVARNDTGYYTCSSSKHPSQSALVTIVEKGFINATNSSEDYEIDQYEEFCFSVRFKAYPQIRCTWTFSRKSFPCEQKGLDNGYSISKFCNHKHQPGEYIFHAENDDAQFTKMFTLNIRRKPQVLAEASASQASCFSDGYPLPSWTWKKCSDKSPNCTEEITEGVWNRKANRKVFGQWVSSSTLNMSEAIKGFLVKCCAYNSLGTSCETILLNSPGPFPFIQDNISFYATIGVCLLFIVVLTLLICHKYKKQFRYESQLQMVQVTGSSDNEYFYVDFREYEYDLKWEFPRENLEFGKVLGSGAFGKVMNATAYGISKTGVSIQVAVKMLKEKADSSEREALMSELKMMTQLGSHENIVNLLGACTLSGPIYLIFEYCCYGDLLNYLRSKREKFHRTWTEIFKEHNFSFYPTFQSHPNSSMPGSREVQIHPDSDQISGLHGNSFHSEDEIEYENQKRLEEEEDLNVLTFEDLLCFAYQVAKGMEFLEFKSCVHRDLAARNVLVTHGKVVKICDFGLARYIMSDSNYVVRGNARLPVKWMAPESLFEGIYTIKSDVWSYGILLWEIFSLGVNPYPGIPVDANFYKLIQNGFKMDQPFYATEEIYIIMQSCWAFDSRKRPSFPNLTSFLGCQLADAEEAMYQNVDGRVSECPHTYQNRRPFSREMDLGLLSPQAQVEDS
Method in brief: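 AlphaScreen read-out of tyrosine phosphorylation of a 30 nM biotinylated poly(Glu4-Tyr) substrate, captured on streptavidin donor and PY20 acceptor beads at room temperature. ATP for IC50 work was 100 μM with FLT3-ITD and 10 μM with FLT3-D835Y; reduced 580 nm proximity signal reflects kinase inhibition.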

IC50, 0.0001 to 1 µM:
FC(F)(F)Cn1cc(-c2cnc3[nH]cc(-c4ccc5ncn(C6CCCNC6)c5c4)c3c2)cn1 (centres unmarked) [P-275, 1-(3-piperidyl)-6-[5-[1-(2,2,2-trifluoroethyl)pyrazol-4-yl]-1H-pyrrolo[2,3-b]pyridin-3-yl]benzimidazole]
CCN1CCN(c2ccc(-c3cnc4[nH]cc(-c5ccc6ncn(C7CCCNC7)c6c5)c4n3)cc2)CC1 (centres unmarked) [P-359, 2-[4-(4-ethylpiperazin-1-yl)phenyl]-7-[3-(3-piperidyl)benzimidazol-5-yl]-5H-pyrrolo[2,3-b]pyrazine]
CN1CCN(c2cccc(-c3cnc4[nH]cc(-c5ccc6ncn(C(C)(C)C)c6c5)c4n3)c2)CC1 [P-331, 7-(3-tert-butylbenzimidazol-5-yl)-2-[3-(4-methylpiperazin-1-yl)phenyl]-5H-pyrrolo[2,3-b]pyrazine]
O=S1(=O)CCCCN1c1cc(-c2cnc3[nH]cc(-c4ccc5ncn(C6CCCNC6)c5c4)c3n2)ccn1 (centres unmarked) [P-310, 2-[4-[7-[3-(3-piperidyl)benzimidazol-5-yl]-5H-pyrrolo[2,3-b]pyrazin-2-yl]-2-pyridyl]thiazinane 1,1-dioxide]
CCN1CCN(c2ccc(-c3cnc4[nH]cc(-c5ccc6ncn(C(C)(C)C)c6c5)c4n3)cn2)CC1 [P-365, 7-(3-tert-butylbenzimidazol-5-yl)-2-[6-(4-ethylpiperazin-1-yl)-3-pyridyl]-5H-pyrrolo[2,3-b]pyrazine]
FC(F)n1cc(-c2cnc3[nH]cc(-c4ccc5ncn(C6CCCNC6)c5c4)c3c2)cn1 (centres unmarked) [P-274, 5-[1-(difluoromethyl)pyrazol-4-yl]-3-[3-(3-piperidyl)benzimidazol-5-yl]-1H-pyrrolo[2,3-b]pyridine]
CCN1CCN(c2ccc(-c3cnc4[nH]cc(-c5ccc6ncn(C7CCCNC7)c6c5)c4n3)cn2)CC1 (centres unmarked) [P-366, 2-[6-(4-ethylpiperazin-1-yl)-3-pyridyl]-7-[3-(3-piperidyl)benzimidazol-5-yl]-5H-pyrrolo[2,3-b]pyrazine]
CC(C)(C)n1cnc2ccc(-c3c[nH]c4ncc(-c5ccc(N6CCCCC6)nc5)nc34)cc21 [P-347, 7-(1-(tert-butyl)-1H-benzo[d]imidazol-6-yl)-2-(6-(piperidin-1-yl)pyridin-3-yl)-5H-pyrrolo[2,3-b]pyrazine]
COc1cc(-c2cnc3[nH]cc(-c4ccc5ncn(C(C)(C)C)c5c4)c3c2)c(OC)nn1 [P-292, 1-tert-butyl-6-[5-(3,6-dimethoxypyridazin-4-yl)-1H-pyrrolo[2,3-b]pyridin-3-yl]benzimidazole]
c1cc(N2CCCCC2)ncc1-c1cnc2[nH]cc(-c3ccc4ncn(C5CCCNC5)c4c3)c2n1 (centres unmarked) [P-348, 7-[3-(3-piperidyl)benzimidazol-5-yl]-2-[6-(1-piperidyl)-3-pyridyl]-5H-pyrrolo[2,3-b]pyrazine]
O=S1(=O)CCCN1c1cc(-c2cnc3[nH]cc(-c4ccc5ncn(C6CCCNC6)c5c4)c3n2)ccn1 (centres unmarked) [P-295, 2-[4-[7-[3-(3-piperidyl)benzimidazol-5-yl]-5H-pyrrolo[2,3-b]pyrazin-2-yl]-2-pyridyl]-1,2-thiazolidine 1,1-dioxide]
CC(C)(C)n1cnc2ccc(-c3c[nH]c4ncc(-c5ccc(N6CCOCC6)nc5)nc34)cc21 [P-326, 4-[5-[7-(3-tert-butylbenzimidazol-5-yl)-5H-pyrrolo[2,3-b]pyrazin-2-yl]-2-pyridyl]morpholine]
c1cc(-c2cnc3[nH]cc(-c4ccc5ncn(C6CCCNC6)c5c4)c3n2)cc(N2CCCCC2)c1 (centres unmarked) [P-337, 7-[3-(3-piperidyl)benzimidazol-5-yl]-2-[3-(1-piperidyl)phenyl]-5H-pyrrolo[2,3-b]pyrazine]
CC(C)(C)n1cnc2ccc(-c3c[nH]c4ncc(-c5ccnc(N6CCCCS6(=O)=O)c5)nc34)cc21 [P-309, 2-[4-[7-(3-tert-butylbenzimidazol-5-yl)-5H-pyrrolo[2,3-b]pyrazin-2-yl]-2-pyridyl]thiazinane 1,1-dioxide]
c1cc(-c2cnc3[nH]cc(-c4ccc5ncn(C6CCCNC6)c5c4)c3c2)cc(N2CCOCC2)c1 (centres unmarked) [P-317, 4-[3-[3-[3-(3-piperidyl)benzimidazol-5-yl]-1H-pyrrolo[2,3-b]pyridin-5-yl]phenyl]morpholine]
CC(C)(C)n1cnc2ccc(-c3c[nH]c4ncc(-c5ccnc(N6CCCS6(=O)=O)c5)nc34)cc21 [P-294, 2-[4-[7-(3-tert-butylbenzimidazol-5-yl)-5H-pyrrolo[2,3-b]pyrazin-2-yl]-2-pyridyl]-1,2-thiazolidine 1,1-dioxide]
CC(C)(C)n1cnc2ccc(-c3n[nH]c4ncc(-c5cccc(N6CCCS6(=O)=O)c5)cc34)cc21 [P-296, 2-[3-[3-(3-tert-butylbenzimidazol-5-yl)-1H-pyrazolo[3,4-b]pyridin-5-yl]phenyl]-1,2-thiazolidine 1,1-dioxide]
CCN1CCN(c2cc(-c3cnc4[nH]cc(-c5ccc6ncn(C7CCCNC7)c6c5)c4n3)ccn2)CC1 (centres unmarked) [P-327, 2-[2-(4-ethylpiperazin-1-yl)-4-pyridyl]-7-[3-(3-piperidyl)benzimidazol-5-yl]-5H-pyrrolo[2,3-b]pyrazine]
CC(C)(C)n1cnc2ccc(-c3c[nH]c4ncc(-c5ccc(N6CCCS6(=O)=O)cc5)cc34)cc21 [P-320, 2-[4-[3-(3-tert-butylbenzimidazol-5-yl)-1H-pyrrolo[2,3-b]pyridin-5-yl]phenyl]-1,2-thiazolidine 1,1-dioxide]
COc1cc(-c2cnc3[nH]cc(-c4ccc5ncn(C6CCCN(S(C)(=O)=O)C6)c5c4)c3n2)ccn1 (centres unmarked) [P-281, 2-(2-methoxy-4-pyridyl)-7-[3-(1-methylsulfonyl-3-piperidyl)benzimidazol-5-yl]-5H-pyrrolo[2,3-b]pyrazine]
